Patent US8350062B2, “Synthesis and anticancer activity of new actin-targeting small-molecule agents” (priority 2009, dated 2013)

Tests used:
RXF 393 = assay: NCI 60 cell line single dose screen; type: cell-based, human; conditions: RXF 393 (Renal Cancer), 10 micromolar, 48 h
Excerpt: (§1) Analog 10 was screened utilizing 60 different human tumor cell lines, representing leukemia, melanoma and cancers of the lung, colon, brain, ovary, breast, prostate, and kidney in order to show selective growth inhibition or cell killing of particular tumor cell lines. This screen is unique in that the complexity of a 60 cell line dose response produced by a given compound results in a biological response pattern which can be utilized in pattern recognition algorithms (COMPARE program. See: http://dtp.nci.nih.gov/docs/compare/compare.html). Using these algorithms, it is possible to assign a putative mechanism of action to a test compound, or to determine that the response pattern is unique and not similar to that of any of the standard prototype compounds included in the NCI database. In addition, following characterization of various cellular molecular targets in the 60 cell lines, it may be possible to select compounds most likely to interact with a specific molecular target.
(§2) The screening is a two-stage process, beginning with the evaluation of the compound against the 60 cell lines at a single dose of 10 uM.
(§3) The human tumor cell lines of the cancer screening panel are grown in RPMI 1640 medium containing 5% fetal bovine serum and 2 mM L-glutamine. For a typical screening experiment, cells are inoculated into 96 well microtiter plates in 100 μL at plating densities ranging from 5,000 to 40,000 cells/well depending on the doubling time of individual cell lines. After cell inoculation, the microtiter plates are incubated at 37° C., 5% CO2, 95% air and 100% relative humidity for 24 h prior to addition of experimental drug.
(§4) After 24 h, two plates of each cell line are fixed in situ with TCA, to represent a measurement of the cell population for each cell line at the time of drug addition (Tz). Experimental drugs are solubilized in dimethyl sulfoxide at 400-fold the desired final maximum test concentration and stored frozen prior to use. At the time of drug addition, an aliquot of frozen concentrate is thawed and diluted to twice the desired final maximum test concentration with complete medium containing 50 μg/ml gentamicin.
(§5) Following drug addition, the plates are incubated for an additional 48 h at 37° C., 5% CO2, 95% air, and 100% relative humidity. For adherent cells, the assay is terminated by the addition of cold TCA. Cells are fixed in situ by the gentle addition of […] of cold 50% (w/v) TCA (final concentration, 10% TCA) and incubated for 60 minutes at 4° C. The supernatant is discarded, and the plates are washed five times with tap water and air dried. Sulforhodamine B (SRB) solution (100 μl) at 0.4% (w/v) in 1% acetic acid is added to each well, and plates are incubated for 10 minutes at room temperature. After staining, unbound dye is removed by washing five times with 1% acetic acid and the plates are air dried. Bound stain is subsequently solubilized with 10 mM trizma base, and the absorbance is read on an automated plate reader at a wavelength of 515 nm. For suspension cells, the methodology is the same except that the assay is terminated by fixing settled cells at the bottom of the wells by gently adding 50 μl of 80% TCA (final concentration, 16% TCA). Using the absorbance measurements [time zero, (Tz), control growth, (C), and test growth in the presence of drug (Ti)], the percentage growth is calculated.

SN12C = assay: NCI 60 cell line single dose screen; type: cell-based, human; conditions: SN12C (Renal Cancer), 10 micromolar, 48 h
Excerpt: as §1, §2, §3, §4, §5

ACHN = assay: NCI 60 cell line single dose screen; type: cell-based, human; conditions: ACHN (Renal Cancer), 10 micromolar, 48 h
Excerpt: as §1, §2, §3, §4, §5

A498 = assay: NCI 60 cell line single dose screen; type: cell-based, human; conditions: A498 (Renal Cancer), 10 micromolar, 48 h
Excerpt: as §1, §2, §3, §4, §5

MDA-MB-435 = assay: NCI 60 cell line single dose screen; type: cell-based, human; conditions: MDA-MB-435 (Melanoma), 10 micromolar, 48 h
Excerpt: as §1, §2, §3, §4, §5

U251 = assay: NCI 60 cell line single dose screen; type: cell-based, human; conditions: U251 (CNS Cancer), 10 micromolar, 48 h
Excerpt: as §1, §2, §3, §4, §5

DU-145 = assay: NCI 60 cell line single dose screen; type: cell-based, human; conditions: DU-145 (Prostate Cancer), 10 micromolar, 48 h
Excerpt: as §1, §2, §3, §4, §5

HT29 = assay: NCI 60 cell line single dose screen; type: cell-based, human; conditions: HT29 (Colon Cancer), 10 micromolar, 48 h
Excerpt: as §1, §2, §3, §4, §5

BT-549 = assay: NCI 60 cell line single dose screen; type: cell-based, human; conditions: BT-549 (Breast Cancer), 10 micromolar, 48 h
Excerpt: as §1, §2, §3, §4, §5

PC-3 = assay: NCI 60 cell line single dose screen; type: cell-based, human; conditions: PC-3 (Prostate Cancer), 10 micromolar, 48 h
Excerpt: as §1, §2, §3, §4, §5

SF-539 = assay: NCI 60 cell line single dose screen; type: cell-based, human; conditions: SF-539 (CNS Cancer), 10 micromolar, 48 h
Excerpt: as §1, §2, §3, §4, §5

SK-MEL-5 = assay: NCI 60 cell line single dose screen; type: cell-based, human; conditions: SK-MEL-5 (Melanoma), 10 micromolar, 48 h
Excerpt: as §1, §2, §3, §4, §5

NCI-H522 = assay: NCI 60 cell line single dose screen; type: cell-based, human; conditions: NCI-H522 (Non-Small Cell Lung Cancer), 10 micromolar, 48 h
Excerpt: as §1, §2, §3, §4, §5

NCI-H23 = assay: NCI 60 cell line single dose screen; type: cell-based, human; conditions: NCI-H23 (Non-Small Cell Lung Cancer), 10 micromolar, 48 h
Excerpt: as §1, §2, §3, §4, §5

HCT-15 = assay: NCI 60 cell line single dose screen; type: cell-based, human; conditions: HCT-15 (Colon Cancer), 10 micromolar, 48 h
Excerpt: as §1, §2, §3, §4, §5

SF-268 = assay: NCI 60 cell line single dose screen; type: cell-based, human; conditions: SF-268 (CNS Cancer), 10 micromolar, 48 h
Excerpt: as §1, §2, §3, §4, §5

SNB-19 = assay: NCI 60 cell line single dose screen; type: cell-based, human; conditions: SNB-19 (CNS Cancer), 10 micromolar, 48 h
Excerpt: as §1, §2, §3, §4, §5

IGROV1 = assay: NCI 60 cell line single dose screen; type: cell-based, human; conditions: IGROV1 (Ovarian Cancer), 10 micromolar, 48 h
Excerpt: as §1, §2, §3, §4, §5

HCT-116 = assay: NCI 60 cell line single dose screen; type: cell-based, human; conditions: HCT-116 (Colon Cancer), 10 micromolar, 48 h
Excerpt: as §1, §2, §3, §4, §5

SK-MEL-2 = assay: NCI 60 cell line single dose screen; type: cell-based, human; conditions: SK-MEL-2 (Melanoma), 10 micromolar, 48 h
Excerpt: as §1, §2, §3, §4, §5

T-47D = assay: NCI 60 cell line single dose screen; type: cell-based, human; conditions: T-47D (Breast Cancer), 10 micromolar, 48 h
Excerpt: as §1, §2, §3, §4, §5

[1] = tested on: 60 different human tumor cell lines; assay: NCI 60 cell line single dose screen, whole panel; type: cell-based; conditions: 10 micromolar, mean over cell lines
Excerpt: as §1, with “In addition, following characterization of various cellular molecular targets in the 60 cell lines, it may be possible to select compounds most likely to interact with a specific molecular target.” left out
Following drug addition, the plates are incubated for an additional 48 h at 37° C., 5% CO2, 95% air, and 100% relative humidity. […] Bound stain is subsequently solubilized with 10 mM trizma base, and the absorbance is read on an automated plate reader at a wavelength of 515 nm. […] Using the absorbance measurements [time zero, (Tz), control growth, (C), and test growth in the presence of drug (Ti)], the percentage growth is calculated.

**Q.** Which results are given for `COCCC(=O)NC[C@H](O)[C@H](C)C(=O)NCCC[C@H]1O[C@@]2(CCC[C@@H](CC[C@H](C)/C=C(\C)[C@H](C)O)O2)CCC1C` (stereo partly shown) [Analog 10]?
**A.** Growth Percent (RXF 393): 26.83%; Growth Percent (SN12C): 57.59%; Growth Percent (ACHN): 51.57%; Growth Percent (A498): 1.82%; Growth Percent (MDA-MB-435): 72.88%; Growth Percent (U251): 50.08%; Growth Percent (DU-145): 54.89%; Growth Percent (HT29): 30.53%; Growth Percent (BT-549): 29.35%; Growth Percent (PC-3): 66.25%; Growth Percent (SF-539): 40.64%; Growth Percent (SK-MEL-5): 75.27%; Growth Percent (NCI-H522): 32.60%; Growth Percent (NCI-H23): 56.78%; Growth Percent (HCT-15): 58.89%; Growth Percent (SF-268): 37.08%; Growth Percent (SNB-19): 75.95%; Growth Percent (IGROV1): 17.52%; Growth Percent (HCT-116): 55.84%; Growth Percent (SK-MEL-2): 53.99%; Growth Percent (T-47D): 71.80%; Growth Percent, Mean [1]: 50.03%
